Read-outs that look alike come from different tables or passages of the source.
Experiments:
[1] = test system: E. aerogenes ATCC13048e; test: Relative respiratory activity with 22 effectors (Example 3); assay type: cell-based, Enterobacter aerogenes; conditions: Klebsiella aerogenes, ATCC13048E; for activity at 10000 µM: read-out: relative %-respiratory activity; for activity at 20000 µM: effector 20 mM
Text: (§1) In this example, each microorganism is subjected to 22 different effector compounds in addition to control measurements. […] For each microorganism, duplicate measurements were made of 22 different effector compounds. In addition, duplicate measurements were made a control test containing no effector compound. One additional measurement was made of a control solution containing the microorganism with ferricyanide but without effector or DCIP.
(§2) In this example, each normalized data set containing duplicate measurements for each of 22 effector compounds is referenced to the duplicate internal controls to allow batch-to-batch comparison. The obtained signals of charge per unit electrode area for the duplicate control measurements are averaged and set at 100% respiratory cycle activity. […] The data set used to generate pattern recognition plots consists of 5 replicate batches (each batch containing duplicate measurements for each of 22 effector compounds) for each cell culture (10 strains). This is used to generate a 50 (columns)×22 (rows) matrix. The matrix is imported into MATLAB (Version 6.0). Factor analysis is performed using the MATLAB Chemometric Toolbox (Version 2.3) and involves the generation of reduced eigenvectors to determine the optimal number of factors, examination of the resulting residuals plots for randomness, and the generation of scores for the first four principle components.

[2] = test system: P. aeruginosa; test: as above; assay type: cell-based, Pseudomonas aeruginosa; conditions: Pseudomonas aeruginosa; for activity at 10000 µM: read-out: relative %-respiratory activity; for activity at 20000 µM: effector 20 mM
Text: as §1, §2

[3] = test system: E. faecalis; test: as above; assay type: cell-based, Enterococcus faecalis; conditions: Enterococcus faecalis; for activity at 10000 µM: read-out: relative %-respiratory activity; for activity at 20000 µM: effector 20 mM
Text: as §1, §2

[4] = test system: E. coli Neotype; test: as above; assay type: cell-based; conditions: Escherichia coli; for activity at 10000 µM: read-out: relative %-respiratory activity; for activity at 20000 µM: effector 20 mM
Text: as §1, §2

[5] = test system: E. coli B; test: as above; assay type: cell-based; conditions: Escherichia coli; for activity at 10000 µM: read-out: relative %-respiratory activity; for activity at 20000 µM: effector 20 mM
Text: as §1, §2

[6] = test system: E. coli HB101; test: as above; assay type: cell-based; conditions: Escherichia coli; for activity at 20000 µM: effector 20 mM
Text: as §1, §2

[7] = test system: E. coli JM105; test: as above; assay type: cell-based; conditions: Escherichia coli; for activity at 20000 µM: effector 20 mM
Text: as §1, §2

[8] = test system: S. aureus ATCC6538P; test: as above; assay type: cell-based, Staphylococcus aureus; conditions: Staphylococcus aureus, ATCC6538P; for activity at 10000 µM: read-out: relative %-respiratory activity; for activity at 20000 µM: effector 20 mM
Text: as §1, §2

[9] = test system: S. cerevisiae; test: as above; assay type: cell-based, Saccharomyces cerevisiae; conditions: Saccharomyces cerevisiae; for activity at 10000 µM: read-out: relative %-respiratory activity; for activity at 20000 µM: effector 20 mM
Text: as §1, §2

[10] = test system: P. vulgaris ATCC6380; test: as above; assay type: cell-based, Proteus vulgaris; conditions: Proteus vulgaris; for activity at 20000 µM: effector 20 mM
Text: as §1, §2

[11] = test system: Staphylococcus aureus ATCC 6538P; test: Respiration assay (Example 1), electrochemical ferricyanide/DCIP mediator consumption; assay type: cell-based; conditions: effector 10 mM
Description: (§3) The ferricyanide solution is added so that the final ferricyanide concentrations is 50 mM.
(§4) The bacterial suspensions were adjusted to a MacFarland Standard of 5.0 (5.0×10sup.8 cfu/mL) or an optical density of 1.2 measured at 625 nm and cell growth was stopped by cooling the bacterial suspension for a minimum of 15 min in an ice-bath.

[12] = test system: Enterobacter aerogenes ATCC 13048e; test: as above; assay type: cell-based; conditions: effector 10 mM
Description: as §3, §4

[13] = effector 10 mM, 5 μM DCIP, no effector = 100%, n = 26
[14] = effector 10 mM, 5 μM DCIP, no effector = 100%, n = 18
[15] = effector 10 mM, 5 μM DCIP, no effector = 100%, n = 20
[16] = effector 10 mM, 5 μM DCIP, no effector = 100%, n = 10
[17] = HB101, effector 10 mM, 5 μM DCIP, no effector = 100%, n = 18, read-out: relative %-respiratory activity
[18] = JM105, effector 10 mM, 5 μM DCIP, no effector = 100%, n = 10, read-out: relative %-respiratory activity
[19] = ATCC6380, effector 10 mM, 5 μM DCIP, no effector = 100%, n = 20, read-out: relative %-respiratory activity
[20] = effector 30 mM, 5 μM DCIP, no effector = 100%, n = 26
[21] = effector 30 mM, 5 μM DCIP, no effector = 100%, n = 20
[22] = effector 30 mM, 5 μM DCIP, no effector = 100%, n = 10
[23] = 5 μM DCIP, 50 mM ferricyanide, 35° C.
[24] = 5 μM DCIP, no effector = 100%, n = 26
[25] = 5 μM DCIP, no effector = 100%, n = 18
[26] = 5 μM DCIP, no effector = 100%, n = 20
[27] = 5 μM DCIP, no effector = 100%, n = 10
[28] = HB101, 5 μM DCIP, no effector = 100%, n = 18
[29] = JM105, 5 μM DCIP, no effector = 100%, n = 10
[30] = ATCC6380, 5 μM DCIP, no effector = 100%, n = 20

Row | SMILES | activity at 10000 µM [1, 13] [%] | activity at 10000 µM [2, 14] [%] | activity at 10000 µM [3, 15] [%] | activity at 10000 µM [4, 13] [%] | activity at 10000 µM [5, 16] [%] | activity at 10000 µM [6, 17] [%] | activity at 10000 µM [7, 18] [%] | activity at 10000 µM [8, 15] [%] | activity at 10000 µM [9, 16] [%] | activity at 10000 µM [10, 19] [%] | activity at 20000 µM [1, 24] [%] | activity at 20000 µM [2, 25] [%] | activity at 20000 µM [3, 26] [%] | activity at 20000 µM [4, 24] [%] | activity at 20000 µM [5, 27] [%] | activity at 20000 µM [6, 28] [%] | activity at 20000 µM [7, 29] [%] | activity at 20000 µM [8, 26] [%] | activity at 20000 µM [9, 27] [%] | activity at 20000 µM [10, 30] [%] | also measured
1 | OC[C@H]1O[C@@H]2O[C@H]3[C@H](O)[C@@H](O)[C@@H](O[C@H]4[C@H](O)[C@@H](O)[C@@H](O[C@H]5[C@H](O)[C@@H](O)[C@@H](O[C@H]6[C@H](O)[C@@H](O)[C@@H](O[C@H]7[C@H](O)[C@@H](O)[C@@H](O[C@H]8[C@H](O)[C@@H](O)[C@@H](O[C@H]1[C@H](O)[C@H]2O)O[C@@H]8CO)O[C@@H]7CO)O[C@@H]6CO)O[C@@H]5CO)O[C@@H]4CO)O[C@@H]3CO [Beta-cyclodextrin] | 110 | 90 | 155 | 81 | 125 | 132 | 187 | 98 | 112 | 151 | – | – | – | – | – | – | – | – | – | – | –
2 | OC[C@@H](O)[C@@H](O)[C@H](O)[C@@H](O)CO [D-sorbitol] | – | – | – | – | – | – | – | – | – | – | – | – | – | – | – | – | – | – | – | – | activity at 30000 µM [1, 20]: 260%; activity at 30000 µM ([2]; effector 30 mM, 5 μM DCIP, no effector = 100%, n = 18): 104%; activity at 30000 µM [3, 21]: 179%; activity at 30000 µM [4, 20]: 111%; activity at 30000 µM [5, 22]: 136%; activity at 30000 µM ([6]; HB101, effector 30 mM, 5 μM DCIP, no effector = 100%, n = 18): 124%; activity at 30000 µM ([7]; JM105, effector 30 mM, 5 μM DCIP, no effector = 100%, n = 10): 168%; activity at 30000 µM [8, 21]: 167%; activity at 30000 µM [9, 22]: 113%; activity at 30000 µM ([10]; ATCC6380, effector 30 mM, 5 μM DCIP, no effector = 100%, n = 20): 186%
3 | CC(O)C(=O)O (stereo not drawn) [Lactic acid, lactic acid] | 182 | 122 | 118 | 126 | 192 | 171 | 303 | 622 | 123 | 457 | – | – | – | – | – | – | – | – | – | – | slope [11, 23]: 24.8 μC/min; normalized slope ([11]; area normalized): 14.6 μC/min*mm^2; relative activity ([11]; buffer set as 100%): 275%; slope [12, 23]: 27.7 μC/min; normalized slope ([12]; area normalized): 16.3 μC/min*mm^2; relative activity ([12]; buffer set as 100%): 169%
4 | O=C[C@@H](O)[C@H](O)[C@H](O)CO [D-arabinose] | – | – | – | – | – | – | – | – | – | – | 106 | 113 | 139 | 103 | 118 | 107 | 137 | 115 | 143 | 150 | –
5 | OC[C@H]1O[C@@](CO)(O[C@H]2O[C@H](CO)[C@@H](O)[C@H](O)[C@H]2O)[C@@H](O)[C@@H]1O [Sucrose] | – | – | – | – | – | – | – | – | – | – | 188 | 117 | 465 | 122 | 124 | 110 | 121 | 290 | 161 | 164 | –
6 | NCCCC[C@H](N)C(=O)O [L-lysine] | – | – | – | – | – | – | – | – | – | – | – | – | – | – | – | – | – | – | – | – | activity at 10000 µM [1]: 125%; activity at 10000 µM [2]: 186%; activity at 10000 µM [3]: 243%; activity at 10000 µM [4]: 101%; activity at 10000 µM [5]: 100%; activity at 10000 µM ([6]; HB101, read-out: relative %-respiratory activity): 125%; activity at 10000 µM ([7]; JM105, read-out: relative %-respiratory activity): 118%; activity at 10000 µM [8]: 159%; activity at 10000 µM [9]: 240%; activity at 10000 µM ([10]; ATCC6380, read-out: relative %-respiratory activity): 219%

Reference: patent publication US20070099259A1, “ELECTROCHEMICAL ASSAY FOR THE IDENTIFICATION OF MICROORGANISMS” (RAPID LABORATORY MICROSYSTEMS INC., priority 2003, published 2007)
